The source of these data is article PMC11955804, “Histidine-rich enantiomeric peptide coacervates enhance antigen sequestration and presentation to T cells” (Chemical Science, 2025).

Data set [1] deals with BMDCs overlaid with DOBW cells. Briefly: In vitro antigen presentation assay, MHC class II (BMDCs + DOBW hybridoma, IL-2 ELISA). The note with it: BMDCs pre-treated 1 h: Chlorpromazine 30 µM, Dynasore 50 µM, Wortmannin 10 µM, Methyl β-CD 2 mM; OVA-loaded coacervates; DOBW overlay 16 h. (ELISA stands for enzyme-linked immunosorbent assay.)
Description: To test internalization mechanisms, we utilized in vitro antigen presentation assays (Fig. 4A). Here, bone marrow-derived dendritic cells (BMDCs) are treated with coacervates loaded with the model antigen ovalbumin (OVA). […] Secretion of IL-2 in response to peptide-MHC recognition is an indirect measure of coacervate uptake and can be quantified using ELISA (enzyme-linked immunosorbent assay) (Fig. 4A). […] We next used pharmacological inhibitors of endocytic mechanisms to explore mechanisms of cell entry (Fig. 4E). BMDCs were treated with inhibitors of clathrin-mediated endocytosis (chlorpromazine, CPZ),[58] dynamin-dependent endocytosis (dynasore, Dyn),[59] macropinocytosis (wortmannin, Wort),[60] cholesterol (methyl β-CD),[61] and IPA3 the regulatory domain of PAK1 (IPA-3)[62] for one h prior to antigen presentation assays.
Uptake of coacervates by BMDCs was measured using in vitro antigen presentation assays.
BMDCs were plated in 96-well round-bottom plates (1×10^5 cells/well) and maintained at 4°C or
treated with 10 mM deoxy glucose and 10 mM sodium azide in PBS (ATP depletion) for 1 h prior
to addition of OVA-loaded coacervates. Final OVA concentration was 1 g/mL for time-
dependent measurements and 10 g/mL for comparison between enantiomers. Cells maintained at
37°C and complete RPMI media served as controls. Soluble OVA and PBS treated cells were used as controls for antigen delivery. Following treatment (2 h, 4 h, 24 h, 48 h, or 72 h), BMDCs were
washed to remove extracellular coacervates and DOBW hybridoma cells (1:5, DC: DOBW) were
overlaid for 16 h. The cells were then centrifuged at 300 × g for 5 min, and the supernatant was
collected for IL-2 quantitation by ELISA according to the manufacturer protocol (Biotechne,
#DY402). The amount of IL-2 produced under each condition was measured.
Inhibition of coacervate uptake was measured by adding the inhibitors 1 h
prior to coacervate treatment for 24 h followed by hybridoma overlay and IL-2 measurements.
The next data set deals with DCs. Briefly: DQ-OVA delivery to lysosomes (fluorescence microscopy). The class given is cell-based, mouse. To be noted: DCs treated with DQ-OVA coacervates. How it is done:
page 13: Flow cytometry The transfected A549 cells were washed with FACS wash buffer (FWB; 1× PBS with 10% […] Cells were washed again with FWB and then resuspended in 100 µl of PBS with eBioscience™ Fixable Viability Dye eFluor™ 506 antibody. The staining was quenched with FWB following a 20 min incubation. The cells were centrifuged, washed 2× times with FWB, and resuspended in 100 µl FWB with CD55 (DAF) Antibody (anti-human; miltenyibiotec Cat#130-126-382). After 20 min, staining was quenched, cells washed twice and resuspended in 200 µl FWB for acquisition. Single-stained cells stained with eFluor™ 506, CD55 (DAF) Antibody, were used as compensation controls. Samples were acquired using an Agilent NovoCyte 3000 flow cytometer. Data were analyzed with FlowJo version 10. […] was quantified as the percentage CD55+ cells, considering untreated cells as the negative control and Lipofectamine treated ones as the positive control. Antigen delivery to lysosomes and inhibitor effects DC 2.4 cells were cultured in RPMI-1640 (Catalog number: 11875093) medium supplemented with 10% FBS, 100 U/mL penicillin, 100 μg/mL streptomycin, and 1 mM sodium pyruvate. Cells were plated in 8-well chamber slides (5000 cells in 200 μL of media) and incubated for 24 h prior to addition of DQ-OVA loaded coacervates for 2 h, 6 h, or 24 h (final DQ-OVA concentration was 2.5 μg/mL). Cells treated with PBS or soluble OVA served as controls. Cells were then washed and fixed using 4% Paraformaldehyde (PFA) for 15 min at RT and permeabilized with 0.1% Triton X-100 for 5 min prior to nuclear staining with Hoechst stain (Catalog number: 62249, Thermo Fischer Scientific; 10 μg/mL). Cells were imaged (60×) on Lionheart FX automated microscope (BioTek Instruments, Inc.) with controlled exposure S13 page 14: parameters across two channels: eGFP and DAPI.

In data set [2] the test system is BMDCs overlaid with OVA1.3 hybridoma cells. Briefly: In vitro antigen presentation assay, MHC class I (BMDCs + OVA1.3 hybridoma, IL-2 ELISA). The data set is classed as cell-based, mouse. The note with it: inhibitor 30 min before coacervates, Bortezomib 10 nM, Brefeldin A 17.8 µM, Lactacystin 50 µM. An excerpt: parameters across two channels: eGFP and DAPI. Images were captured for each time point (2, 6, […]
deconvoluted using Gen 5 software overlaid to visualize localization. To test the effect of […]
T cell proliferation and functional cytokine production […]
at 1×10^8 cells/mL in EasySep Buffer.

Data set [3] can be described thus: Encapsulation efficiency measurement. To be noted: 1 mM peptide, 1 µM eGFP in PBS; centrifuged 15,000 × g 10 min; fluorescence of supernatant (λex 395 nm, λem 510 nm). The data set is classed as physicochemical. As to the method:
Encapsulation efficiency measurements […]
powders to a final peptide concentration of 1 mM. Cargo concentrations in the stock solutions […]
nm and λem: 519 nm). For small molecule dyes, similar methods were used. The encapsulation efficiency was determined as reported previously 12.
Cellular uptake and antigen presentation assays […]
to addition of OVA-loaded coacervates. Final OVA concentration was 1 µg/mL for time- […]
37°C and complete RPMI media served as controls. Soluble OVA and PBS treated cells were used as controls for antigen delivery.

The nature of another data set: Turbidity assay of LLPS. The data set is classed as physicochemical. The note with it: 1× PBS pH 7.4, absorbance at 600 nm over 24 h, plate reader. An excerpt: (§1) Peptide synthesis and purification
The L- and D-enantiomers of (GHGLY)4, (GHGVY)4 and (GHGPY)4 peptides were purchased from GenScript and used without further modification. (GHGAY)4, (GHGFY)4, (GHGIY)4 and (GHGNY)4 were synthesized using standard Fmoc-SPPS chemistry on Rink Amide with Oxyma (Ethyl cyano(hydroxyimino) acetate) and N, N′-diisopropylcarbodiimide (DIC) as coupling agents on a Liberty Blue microwave-assisted synthesizer. Peptides were cleaved using a cocktail of trifluoroacetic acid (TFA), tri-isopropyl silane (TIS), and H2O (95:2.5:2.5) and extracted and washed in cold diethyl ether. The resulting pellet was dissolved in acetonitrile/water mixture (50:50) and frozen prior to lyophilization. Peptides were purified (~90%) using High Performance Liquid Chromatography (HPLC) on a Dionex Ultimate 3000 HPLC equipped with a diode-array detector on an Agilent Poroshell RP-C18 column (4.6 mm×150 mm), operating at a flow rate of 1 mL/min. […]
Peptide solutions (0.25–1.5 mM) were prepared in 1×PBS at pH 7.4. Aliquots (140 µL) were pipetted into a 96-well plate and absorbance at 600 nm was measured over 24 h using a Synergy HT plate reader (Biotek, USA) at RT or 37°C with or without agitation. The pH dependence of LLPS formation was assessed in 0.1 M potassium phosphate buffer (with 150 mM NaCl) at different pH values (5.8, 6.6, 7.4, 8.0) and 1 mM peptide concentration. […]
NaCl) was used to study ionic strength effects. The absorbance was further converted to turbidity using methods previously described 1 and data was plotted as relative turbidity. […]
Droplets were visualized in 1×PBS using NCI Leica DMC4500 microscope in reflection mode with differential interference contrast. […] Coacervate size was measured using 1 mM peptide solutions (1×PBS, pH 7.4) on a ZEN 3600 Zetasizer (Malvern Instruments, UK) using DLS-Zen 0040 specialized cuvettes. […]
Viscosity of the peptide solutions (1 mM or 2 mM) was tested using an ARES 2000ex rotational rheometer (TA Instruments, New Castle, DE). […] Viscosity was measured as a function

The nature of data set [4]: Dynamic light scattering (DLS) droplet size. The class given is physicochemical. To be noted: 1 mM peptide, 1× PBS, pH 7.4; mean of 3 measurements with 14 scans each; identical for each pair of enantiomers. How it is done: Optical microscopy and dynamic light scattering (DLS) […]
Coacervate size was measured using 1 mM
peptide solutions (1×PBS, pH 7.4) on a ZEN 3600 Zetasizer (Malvern Instruments, UK) using
DLS-Zen 0040 specialized cuvettes. The results were reported as the means of three
measurements, with 14 scans for each measurement. […]

Data set [5] in a line: Optical microscopy of coacervate formation (LLPS). The data set is classed as physicochemical. An excerpt:
NaCl) was used to study ionic strength effects. The absorbance was further converted to turbidity using methods previously described 1 and data was plotted as relative turbidity.
Optical microscopy and dynamic light scattering (DLS)
Droplets were visualized in 1×PBS using NCI Leica DMC4500 microscope in reflection mode with differential interference contrast. Images were captured with a DMC4500 camera under the control of Leica LAS X software (version 3.4.2). […]

A short description of data set [6]: Critical concentration (Ccrit) of coacervate formation. The data set is classed as physicochemical. To be noted: 1× PBS, pH 7.4; enantiomeric variants identical.
Description: as §1
The L- and D-enantiomers of (GHGLY)4, (GHGVY)4 and (GHGPY)4 peptides were purchased from GenScript and used without further modification. (GHGAY)4, (GHGFY)4, (GHGIY)4 and (GHGNY)4 were synthesized using standard Fmoc-SPPS chemistry on Rink Amide with Oxyma (Ethyl cyano(hydroxyimino) acetate) and N, N′-diisopropylcarbodiimide (DIC) as coupling agents on a Liberty Blue microwave-assisted synthesizer. Peptides were cleaved using a cocktail of trifluoroacetic acid (TFA), tri-isopropyl silane (TIS), and H2O (95:2.5:2.5) and extracted and washed in cold diethyl ether. The resulting pellet was dissolved in acetonitrile/water mixture (50:50) and frozen prior to lyophilization. Peptides were purified (~90%) using High Performance Liquid Chromatography (HPLC) on a Dionex Ultimate 3000 HPLC equipped with a diode-array detector on an Agilent Poroshell RP-C18 column (4.6 mm×150 mm), operating at a flow rate of 1 mL/min. Peaks corresponding to 220 nm were collected for MALDI -TOF mass analysis (Shimadzu MALDI-8030) using α-cyno-4-hydroxycinnamic acid matrix (Bruker Daltonics, MA).
Peptide solutions (0.25–1.5 mM) were prepared in 1×PBS at pH 7.4. Aliquots (140 µL) were pipetted into a 96-well plate and absorbance at 600 nm was measured over 24 h using a Synergy HT plate reader (Biotek, USA) at RT or 37°C with or without agitation. The pH dependence of LLPS formation was assessed in 0.1 M potassium phosphate buffer (with 150 mM NaCl) at different pH values (5.8, 6.6, 7.4, 8.0) and 1 mM peptide concentration. Similarly, 0.1 M potassium phosphate buffer (pH 7.4) with varying salt concent rations (0, 150, 250, 500, 1000 mM […]
Figure S10. Determination of Ccrit for (a) (GHGLY)4, (b) (GHGVY)4, (c) (GHGPY)4 and (d-f) their corresponding enantiomers (1 mM, 1× PBS, pH 7.4).
Table S1. Measured Ccrit values for (GHGXY)4 peptides used in this study.
(1 picture or pasted object on this page, not shown here)

`CN(C)CCCN1c2ccccc2Sc2ccc(Cl)cc21` [CPZ, chlorpromazine]: the “effect of endocytosis inhibitor on uptake of coacervates (IL-2)” value (shortened to “effect of endocytosis inhibitor”) in data set [1] is “did not significantly impact droplet uptake”. Still for that read-out and setting: in the case of `O=C(N/N=C/c1ccc(O)c(O)c1)c1cc2ccccc2cc1O` [Dyn, dynasore] it was “did not significantly impact droplet uptake”. On to `Cl.N` [NH4Cl, reference compound], for which the “DQ-OVA fluorescence intensity in DCs in the presence of inhibitor” value with DCs was “reduced”.

Consider `CO/C1=C\C(C)=C\[C@@H](C)[C@@H](O)[C@@H](C)C/C(C)=C/C=C/[C@H](OC)[C@@H]([C@@H](C)[C@@H](O)[C@H](C)[C@@]2(O)C[C@@H](O)[C@H](C)[C@@H](C(C)C)O2)OC1=O` [bafilomycin, reference compound], for which the “DQ-OVA fluorescence intensity in DCs in the presence of inhibitor” value with DCs is “reduced”. As for `CC(C)C[C@H](NC(=O)[C@H](Cc1ccccc1)NC(=O)c1cnccn1)B(O)O` [bortezomib], the “MHC class I presentation (IL-2 secretion) with MHC-I inhibitor” value in data set [2] is listed as “significantly diminished”.

Regarding `C[C@H]1CCC/C=C/[C@@H]2C[C@H](O)C[C@H]2[C@H](O)/C=C/C(=O)O1` [brefeldin A], in data set [2], the “MHC class I presentation (IL-2 secretion) with MHC-I inhibitor” value is on record as “significantly diminished”. The same measure, in the same setting: next, `CC(=O)N[C@@H](CSC(=O)[C@]1([C@@H](O)C(C)C)NC(=O)[C@H](C)[C@@H]1O)C(=O)O` [lactacystin]: “significantly diminished”. In the case of `COC[C@H]1OC(=O)c2coc3c2[C@@]1(C)C1=C(C3=O)[C@@H]2CCC(=O)[C@@]2(C)C[C@H]1OC(C)=O` [wortmannin], the “effect of endocytosis inhibitor” value in data set [1] is reported as “most significant effect on uptake of coacervates”.

Take (GHGPY)4 [GP 20]: the eGFP loading efficiency in data set [3] is listed as around 30%. Further, the “turbidity over time (A600)” value in “Turbidity assay of LLPS” is “no turbidity changes were detected with time”. Further, in data set [4], the “droplet size (DLS)” value is around 0.2 μm. Besides, the “coacervates at concentrations exceeding 250 mM NaCl” value in data set [5] (optical micrographs, 0.1 M potassium phosphate buffer pH 7.4, > 250 mM NaCl) is on record as “no coacervates were detected”. Besides, the coacervate formation result in data set [5] (optical microscopy, 1× PBS, across multiple synthesis batches) is recorded as “Consistent coacervate formation”. Also, in data set [6], the “critical concentration (Ccrit) of coacervate formation” value stood at 1 mM. With methyl β-CD, in data set [1], the “effect of endocytosis inhibitor” value is recorded as “did not significantly impact droplet uptake”.
